Source: patent publication US7311893B2, “Amyloid targeting imaging agents and uses thereof” (Neurochem (International) Limited, priority 2000, dated 2007)

These compounds were tested on insoluble amyloid or amyloid plaques (assay: binding data for amyloid-targeting moieties (FIGS. 1 and 2)). Details: insoluble vs soluble amyloid; data in FIGS. 1 and 2.

| Compound | binding to insoluble amyloid or amyloid plaques in preference to soluble amyloid |
| --- | --- |
| 1,6-hexanedisulfonate | bind insoluble amyloid or amyloid plaques in preference to soluble amyloid |
| O=S(=O)(O)CCCN1CCN(CCCS(=O)(=O)O)CC1 [1,4-piperazinebis(propanesulfonic acid)] | bind insoluble amyloid or amyloid plaques in preference to soluble amyloid |
| O=S(=O)(O)CCCNC1(CO)CCCC1 [3-(1-hydroxymethyl-1-cyclopentyl)amino-1-propane sulfonic acid] | bind insoluble amyloid or amyloid plaques in preference to soluble amyloid |
| O=S(=O)(O)CCCNCCCCCCO [3-(6-hydroxy-1-hexyl)amino-1-propane sulfonic acid] | bind insoluble amyloid or amyloid plaques in preference to soluble amyloid |
| O=S(=O)(O)CCCN1CC=CCC1 [3-[1-(1,2,3,6-tetrahydropyridinyl)]-1-propanesulfonic acid] | bind insoluble amyloid or amyloid plaques in preference to soluble amyloid |
| O=S(=O)(O)NCCCO [3-hydroxypropylsulfamic acid] | bind insoluble amyloid or amyloid plaques in preference to soluble amyloid |
| O=S(=O)(O)CCCCN1CCCCC1 [4-(1-piperidinyl)-1-butanesulfonic acid] | bind insoluble amyloid or amyloid plaques in preference to soluble amyloid |
| Cc1ccc2nc(-c3ccc(N=NNc4ccc(-c5nc6ccc(C)c(S(=O)(=O)[O-])c6s5)cc4)cc3)sc2c1S(=O)(=O)[O-].[Na+].[Na+] [Thiazole yellow G, reference compound] | bind insoluble amyloid or amyloid plaques in preference to soluble amyloid |
| NCCCC[C@H](NCCCS(=O)(=O)O)C(=O)O [alpha-N-(3-sulfopropyl)-L-lysine] | bind insoluble amyloid or amyloid plaques in preference to soluble amyloid |
| COC(=O)CCN1CCc2ccccc2C1.Cl [methyl 2-(2-carboxyethyl)-1,2,3,4-tetrahydroisoquinoline hydrochloride] | bind insoluble amyloid or amyloid plaques in preference to soluble amyloid |
